From paper PMC2686265, “ATP and MO25α Regulate the Conformational State of the STRADα Pseudokinase and Activation of the LKB1 Tumour Suppressor” (PLoS Biology, 2009) come the findings set out here.

The test has as its target T1, STRADα (Homo sapiens, UniProt Q7RTN6).
T1 construct: wild-type and mutant forms of STRADα (residues 54–431) and MO25α (residues 1–341) were expressed individually as GST fusion proteins in E. coli; GST (cleaved yes); made in house; host or cells: E. coli
T1 sequence (Q7RTN6 54-431): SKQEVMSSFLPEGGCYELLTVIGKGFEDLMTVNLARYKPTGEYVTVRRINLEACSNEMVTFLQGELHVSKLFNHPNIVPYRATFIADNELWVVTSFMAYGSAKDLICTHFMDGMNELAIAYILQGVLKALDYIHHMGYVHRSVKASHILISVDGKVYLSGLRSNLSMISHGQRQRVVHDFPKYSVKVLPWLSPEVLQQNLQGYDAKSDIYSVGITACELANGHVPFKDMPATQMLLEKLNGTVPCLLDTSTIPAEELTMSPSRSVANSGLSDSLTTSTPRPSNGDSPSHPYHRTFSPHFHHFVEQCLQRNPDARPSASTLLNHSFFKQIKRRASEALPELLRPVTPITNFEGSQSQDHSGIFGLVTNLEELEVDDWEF
Kind of test: Displacement of TNP-ATP by ATP and ADP (fluorescence). The class given is binding. To be noted: STRADα alone, No Mg2+, displacement of 5 µM TNP-ATP. On the procedure: Fluorescent measurements of TNP-ATP (Molecular Probes), were obtained at 25°C in assay buffer (with the addition of 0.5–1.0 mM MgCl2 where indicated) using 1-cm pathlength cuvettes in a VARIAN Cary Eclipse Fluorescence spectrophotometer (Varian). Fluorescence was recorded using a 410-nm/540-nm excitation/emission wavelengths from 500 to 600 nm. In all cases, signal from the TNP-ATP buffer control was subtracted as background. For all binding studies, STRADα and STRADα mutants were assayed at 2 µM. In cases where STRADα/MO25α complexes were assayed, wild-type or mutant MO25α (2 µM) were preincubated for at least 2 h at 4°C prior to a fluorescence binding experiment. For saturation binding experiments, concentrated stocks of TNP-ATP were added stepwise, covering a range of concentrations from 0.05 to 30 µM. For displacement experiments, the concentration of TNP-ATP was fixed at 5 µM, and ATP or ADP was titrated in, covering a range of concentrations from 0.05 to 500 µM.
All data were analysed using GraphPad-PRISM software (http://www.graphpad.com). […] In the displacement studies, equilibrium constant values for ATP and ADP were calculated by first determining the logEC50 value, using a standard dose-response equation: F x/F max = minimum+(maximum−minimum)/(1+10^([N]−logEC 50 ^)), where [N] equals the concentration of added nucleotide, and F x/F max represents the fractional occupancy. […]

Where two headings read alike, the source gives them in different places.

As to `Nc1ncnc2c1ncn2[C@@H]1O[C@H](COP(=O)(O)OP(=O)(O)O)[C@@H](O)[C@H]1O` [ADP], the dissociation constant (Kd) (read-out: Kd ADP) lay in the range of 2000 to 3000 nM.

Regarding `Nc1ncnc2c1ncn2[C@@H]1O[C@H](COP(=O)(O)OP(=O)(O)OP(=O)(O)O)[C@@H](O)[C@H]1O` [ATP], under “read-out: Kd ATP”, the equilibrium dissociation constant (Kd) fell in the range of 2000 to 3000 nM.

Usually Kd stands for the constant that tells how readily two partners part at equilibrium.
